Results reported in patent US9108943B2, “Photoreactive benzamide probes for histone deacetylase 2” (THE BOARD OF TRUSTEES OF THE UNIVERSITY OF ILLINOIS, priority 2013, dated 2015).

Columns and labels:
[1] = target: T1, recombinant human HDAC2 (Homo sapiens, UniProt Q92769); assay: Fluorogenic HDAC inhibition assay, HDAC2 (Boc-L-Lys(Ac)-AMC substrate); type: biochemical; conditions: for IC50: maximum preincubation time 24 h
T1 construct: purchased BPS Bioscience
Procedure: (§1) 10 μL of the enzyme stock was added to 30 μL of the probes and preincubated for different preincubation times.

[2] = target: recombinant His-tagged HDAC2 (Homo sapiens, UniProt Q92769); assay: Photoaffinity labeling (photocrosslinking) of HDAC2 with TSA competition, biotin tag, streptavidin-HRP western blot; type: binding; conditions: probe 25 μM, HDAC2 1.25 μM, Trichostatin A 125 μM (5-fold molar excess), 24 h, 254 nm UV
Procedure: Photoaffinity labeling studies were conducted with the probes using commercially available recombinant His-tagged HDAC2. […] The loading was confirmed by using nickel-HRP, which recognized the His-tag of the recombinant HDAC2 protein.
500 μM of DBCO-PEG4-biotin conjugate (Click Chemistry tools) in photolabeling buffer was added to initiate the [3+2] cycloaddition reaction with HDAC2-probe adduct. The cycloaddition reaction was carried out for 3 h at room temperature. Western blotting was done with 1.5 ug of purified protein with 5× loading buffer containing 10% SDS, 0.05% bromophenol blue, 50% glycerol, and β-mercaptoethanol. […] After electrophoresis, protein was transferred to a polyvinylidiene difluoride membrane (Iblot-Invitrogen). The membrane was incubated for 12 h with 5% albumin fraction V (Sigma-aldrich) in 1× Tris based saline supplemented with 0.1% Tween-20 (TBS-T). The membrane was washed three times with TBST and then incubated with Ni-HRP (1:2000) in TBST for 1 h under room temperature with slight agitation. After three washes in TBS-T, the chemilumiscent signal was detected using the enhanced chemiluminescence (ECL) kit from Pierce (Pierce Biotechnology, Rockford, Ill.). […] After three washes in PBST and water, the chemilumiscent signal was detected using the enhanced chemiluminescence (ECL) kit from Pierce (Pierce Biotechnology, Rockford, Ill.).

[3] = target: T2, purified recombinant human HDAC8 from E. coli (Homo sapiens, UniProt Q9BY41); assay: Fluorogenic HDAC inhibition assay, HDAC8 (Fluor de Lys substrate); type: biochemical; conditions: 10 μM inhibitor, preincubation 3 h
T2 construct: made in house; host or cells: E. coli
T2 sequence (Q9BY41 1-377): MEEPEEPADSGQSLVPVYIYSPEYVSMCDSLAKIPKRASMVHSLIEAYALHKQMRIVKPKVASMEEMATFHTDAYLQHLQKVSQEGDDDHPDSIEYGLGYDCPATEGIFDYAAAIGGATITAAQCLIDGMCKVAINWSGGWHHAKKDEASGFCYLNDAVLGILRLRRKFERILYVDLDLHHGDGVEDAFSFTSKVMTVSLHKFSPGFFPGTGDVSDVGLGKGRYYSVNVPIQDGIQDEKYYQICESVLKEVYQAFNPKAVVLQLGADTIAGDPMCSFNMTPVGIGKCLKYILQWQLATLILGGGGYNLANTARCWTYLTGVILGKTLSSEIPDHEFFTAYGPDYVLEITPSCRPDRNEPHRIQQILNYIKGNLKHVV
Procedure: as §1

T1 sequence (Q92769 whole entry): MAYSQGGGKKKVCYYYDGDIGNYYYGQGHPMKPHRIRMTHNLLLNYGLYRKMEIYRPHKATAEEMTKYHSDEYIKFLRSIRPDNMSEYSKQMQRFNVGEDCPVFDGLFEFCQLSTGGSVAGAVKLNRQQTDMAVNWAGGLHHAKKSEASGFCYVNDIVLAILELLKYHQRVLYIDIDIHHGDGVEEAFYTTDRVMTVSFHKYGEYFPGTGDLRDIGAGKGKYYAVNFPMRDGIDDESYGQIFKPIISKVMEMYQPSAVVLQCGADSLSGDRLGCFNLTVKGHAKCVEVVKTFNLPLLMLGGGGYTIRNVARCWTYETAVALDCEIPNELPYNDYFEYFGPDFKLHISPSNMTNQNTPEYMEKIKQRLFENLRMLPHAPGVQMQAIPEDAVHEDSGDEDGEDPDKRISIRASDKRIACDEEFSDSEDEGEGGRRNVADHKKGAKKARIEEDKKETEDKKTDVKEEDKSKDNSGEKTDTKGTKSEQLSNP
Sequence of recombinant His-tagged HDAC2 (Q92769 whole entry): as above

Compound: [N-]=[N+]=NCCOc1ccc(C(=O)Nc2cc(-c3ccccc3)ccc2N)cc1N=[N+]=[N-] [probe 1e, N-(4-amino-[1,1′-biphenyl]-3-yl)-3-azido-4-(2-azidoethoxy)benzamide]
- IC50 [1]: 830 nM
- increase in inhibition of HDAC2 upon preincubation (IC50 ratio) ([1]; preincubation 24 h vs 5 min): 41 fold

Compound: [N-]=[N+]=NCCOc1ccc(C(=O)Nc2cc(-c3cccs3)ccc2N)cc1N=[N+]=[N-] [probe 1f, N-(2-amino-5-(thiophen-2-yl)phenyl)-3-azido-4-(2-azidoethoxy)benzamide]
- IC50 [1]: 750 nM

Compound: [N-]=[N+]=NCCC(=O)Nc1ccc(C(=O)Nc2cc(N=[N+]=[N-])ccc2N)cc1 [probe 1g, N-(2-amino-5-azidophenyl)-4-(3-azidopropanamido)benzamide]
- decrease in biotinylation of HDAC2 in the presence of competing ligand [2]: slightly less pronounced

Compound: [N-]=[N+]=Nc1cccc(COC(=O)NCc2ccc(C(=O)Nc3cc(-c4ccccc4)ccc3N)cc2)c1 [probe 2a, 3-azidobenzyl 4-((4-amino-[1,1′-biphenyl]-3-yl)carbamoyl)benzylcarbamate]
- inhibition of HDAC8 [3]: inactive
- inhibition of HDAC8 ([3]; 10 µM): did not inhibit
